Test results published in patent publication US8030354B2, “Substituted biphenyl GPR40 modulators” (Amgen Inc., priority 2007, dated 2011).

target: GPR40 (Homo sapiens, UniProt O14842); experiment: Cell-based aequorin assay (CHO cells stably expressing GPR40 and aequorin); set-up: expressed in transfected cells; host or cells: CHO cells stably transfected with GPR40 and aequorin; settings: activation of human GPR40, CHO cells, 0.01% HSA
Outline: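 CHO cells stably co-expressing GPR40 and aequorin, loaded with coelenterazine (1 ug/mL, 2 h, room temperature) in H/HBSS with 20 mM Hepes and 0.01% fatty acid-free HSA. Serially diluted compounds added; luminescence recorded over 20 s. EC50 from dose-response of maximum relative light units.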

Sequence of GPR40 (O14842 whole entry): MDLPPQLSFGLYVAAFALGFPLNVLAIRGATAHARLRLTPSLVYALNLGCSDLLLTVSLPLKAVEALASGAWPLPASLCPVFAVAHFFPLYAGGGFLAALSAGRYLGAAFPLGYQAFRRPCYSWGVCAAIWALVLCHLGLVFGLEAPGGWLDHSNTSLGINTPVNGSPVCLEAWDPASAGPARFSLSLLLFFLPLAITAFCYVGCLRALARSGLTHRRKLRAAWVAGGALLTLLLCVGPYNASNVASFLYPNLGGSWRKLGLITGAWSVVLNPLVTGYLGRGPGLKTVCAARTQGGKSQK

EC50 [nM] | Compound
100 to 1000 | CCCC(CC(=O)O)c1cccc(OCc2ccc(-c3cccc(OC)c3)c(C3CCCCCC3)c2)c1 (single isomer, unassigned) [Example 80.1, (3R)-3-(3-(((2-Cycloheptyl-3′-(methyloxy)-1,1′-biphenyl-4-yl)methyl)oxy)phenyl)hexanoic acid or (3S)-3-(3-(((2-cycloheptyl-3′-(methyloxy)-1,1′-biphenyl-4-yl)methyl)oxy)phenyl)hexanoic acid]
100 to 1000 | CCCC(CC(=O)O)c1cccc(OCc2ccc(-c3cc(OC)ccc3F)c(C3CCCC3(C)C)c2)c1 (single isomer, unassigned) [Example 80.3]
100 to 1000 | CCCC(CC(=O)O)c1cccc(OCc2ccc(-c3cccc(OC)c3)c(C3CCCC3(C)C)c2)c1 (single isomer, unassigned) [Example 80.5]
1000 to 10000 | CC1(C)CCC[C@H]1c1cc(COc2cccc([C@H](CC(=O)O)C3CC3)c2F)ccc1-c1cc(C(F)F)ccc1F (single isomer, unassigned) [Example 83.13]
100 to 1000 | COc1ccc(F)c(-c2ccc(COc3cccc(C(CC(=O)O)C4CC4)c3F)cc2C2CCCC2(C)C)c1 (single isomer, unassigned) [Example 83.17]
1000 to 10000 | COc1ccc(F)c(-c2ccc(COc3cccc([C@@H](CC(=O)O)C4CC4)c3F)cc2[C@H](O)C2(C)CC2)c1 (single isomer, unassigned) [Example 83.18]
1000 to 10000 | COc1ccc(F)c(-c2ccc(COc3cccc([C@H](CC(=O)O)C4CC4)c3F)cc2[C@H](O)C2(C)CC2)c1 (single isomer, unassigned) [Example 83.19]
100 to 1000 | CC1(C)CCC[C@@H]1c1cc(COc2cccc([C@@H](CC(=O)O)C3CC3)c2F)ccc1-c1ccccc1F (single isomer, unassigned) [Example 83.23]
1000 to 10000 | COCC1(c2cc(COc3cccc(C(CC(=O)O)C4CC4)c3F)ccc2-c2cc(OC)ncc2F)CCCC1 (single isomer, unassigned) [Example 83.30, (3S)-3-(3-(4-(5-Fluoro-2-methoxypyridin-4-yl)-3-(1-(methoxymethyl)cyclopentyl)benzyloxy)-2-fluorophenyl)-3-cyclopropylpropanoic acid or (3R)-3-(3-(4-(5-fluoro-2-methoxypyridin-4-yl)-3-(1-(methoxymethyl)cyclopentyl)benzyloxy)-2-fluorophenyl)-3-cyclopropylpropanoic acid]
1000 to 10000 | COc1ccc(F)c(-c2ccc(COc3cccc(C(CC(=O)O)C4CC4)c3F)cc2C(OC)C(C)(C)OC)c1 (single isomer, unassigned) [Example 83.33]
1000 to 10000 | CCC(CC(=O)O)c1ccc(F)c(OCc2ccc(-c3cc(OC)ccc3F)c(C(C)(C)C)c2)c1 (single isomer, unassigned) [Example 86.2, (3R)-3-(3-(((2-(1,1-Dimethylethyl)-2′-fluoro-5′-(methyloxy)-1,1′-biphenyl-4-yl)methyl)oxy)-4-fluorophenyl)pentanoic acid or (3S)-3-(3-(((2-(1,1-dimethylethyl)-2′-fluoro-5′-(methyloxy)-1,1′-biphenyl-4-yl)methyl)oxy)-4-fluorophenyl)pentanoic acid]
1000 to 10000 | COc1ccc(F)c(-c2ccc(COc3cccc(C(CC(=O)O)CC(C)C)c3)cc2C(C)(C)C)c1 (single isomer, unassigned) [Example 92, (3R)-3-(3-(((2-(1,1-Dimethylethyl)-2′-fluoro-5′-(methyloxy)-1,1′-biphenyl-4-yl)methyl)oxy)phenyl)-5-methylhexanoic acid or (3S)-3-(3-(((2-(1,1-dimethylethyl)-2′-fluoro-5′-(methyloxy)-1,1′-biphenyl-4-yl)methyl)oxy)phenyl)-5-methylhexanoic acid]

Compound | EC50 [nM]
COc1ccc(F)c(-c2ccc(COc3cccc([C@@H](CC(=O)O)C4CC4)c3F)cc2[C@H](OC)C2(C)CC2)c1 (single isomer, unassigned) [Example 83.31] | 1000 to 10000
COc1cc(-c2ccc(COc3cccc([C@@H](CC(=O)O)C4CC4)c3F)cc2[C@H](OC)C(C)(C)C)c(F)cn1 (single isomer, unassigned) [Example 83.32] | 1000 to 10000
